The values that follow come from ChEMBL document CHEMBL1128530, “Alpha- and beta-adrenoceptors: from the gene to the clinic. 1. Molecular biology and adrenoceptor subclassification” (J Med Chem, 1995).

Test [1] has as its target T1, Alpha-2 adrenergic receptor (Mus musculus, UniProt P30545+Q01338+Q01337).
T1 sequence (P30545 whole entry): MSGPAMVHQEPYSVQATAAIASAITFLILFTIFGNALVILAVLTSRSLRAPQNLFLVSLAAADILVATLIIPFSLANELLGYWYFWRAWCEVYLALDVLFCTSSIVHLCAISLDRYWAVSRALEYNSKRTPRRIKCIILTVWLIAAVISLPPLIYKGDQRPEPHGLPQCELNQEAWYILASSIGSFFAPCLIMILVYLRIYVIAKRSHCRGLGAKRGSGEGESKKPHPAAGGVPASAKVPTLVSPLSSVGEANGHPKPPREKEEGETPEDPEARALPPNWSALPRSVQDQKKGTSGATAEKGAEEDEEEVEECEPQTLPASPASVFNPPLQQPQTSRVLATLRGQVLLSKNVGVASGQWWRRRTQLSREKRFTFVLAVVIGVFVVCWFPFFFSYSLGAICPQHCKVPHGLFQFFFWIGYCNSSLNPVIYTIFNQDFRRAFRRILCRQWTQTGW
T1 sequence (Q01338 whole entry): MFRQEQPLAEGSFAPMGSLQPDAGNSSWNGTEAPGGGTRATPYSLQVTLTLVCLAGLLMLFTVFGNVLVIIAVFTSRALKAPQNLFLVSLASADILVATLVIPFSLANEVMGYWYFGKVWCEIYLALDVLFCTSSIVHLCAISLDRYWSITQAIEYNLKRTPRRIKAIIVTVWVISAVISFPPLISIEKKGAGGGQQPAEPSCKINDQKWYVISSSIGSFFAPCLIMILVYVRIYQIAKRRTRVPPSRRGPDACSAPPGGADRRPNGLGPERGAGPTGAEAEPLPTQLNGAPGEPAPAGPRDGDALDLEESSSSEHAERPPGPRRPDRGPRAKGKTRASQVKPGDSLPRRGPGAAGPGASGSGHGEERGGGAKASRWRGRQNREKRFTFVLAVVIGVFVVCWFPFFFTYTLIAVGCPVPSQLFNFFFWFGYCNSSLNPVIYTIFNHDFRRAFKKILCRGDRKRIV
T1 sequence (Q01337 whole entry): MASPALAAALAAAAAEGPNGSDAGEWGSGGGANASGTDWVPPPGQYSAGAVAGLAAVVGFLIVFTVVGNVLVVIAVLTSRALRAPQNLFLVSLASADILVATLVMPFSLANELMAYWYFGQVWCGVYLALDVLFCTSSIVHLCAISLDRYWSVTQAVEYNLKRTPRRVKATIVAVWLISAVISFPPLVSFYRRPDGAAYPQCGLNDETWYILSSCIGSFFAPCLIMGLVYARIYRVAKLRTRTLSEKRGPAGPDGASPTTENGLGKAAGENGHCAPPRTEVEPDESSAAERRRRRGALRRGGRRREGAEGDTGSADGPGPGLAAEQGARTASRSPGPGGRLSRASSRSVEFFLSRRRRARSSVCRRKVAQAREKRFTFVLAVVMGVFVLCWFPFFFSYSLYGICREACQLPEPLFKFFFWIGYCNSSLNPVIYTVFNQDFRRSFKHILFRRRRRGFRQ
As to the kind of experiment: Compound was evaluated for inhibition of binding of [3H]-MK-91 to Alpha-2 adrenergic receptor in mouse NG-108 cells. The test is classed as cell-based.

Test [2] addresses T1, Alpha-2 adrenergic receptor. In words: Compound was evaluated for inhibition of binding of [3H]MK-91 to Alpha-2 adrenergic receptor in mouse Malpha2-4H. The test is classed as protein assay.
In test [3] the target is T2, Alpha-2A adrenergic receptor (Bos taurus, UniProt Q28838).
T2 sequence (Q28838 whole entry): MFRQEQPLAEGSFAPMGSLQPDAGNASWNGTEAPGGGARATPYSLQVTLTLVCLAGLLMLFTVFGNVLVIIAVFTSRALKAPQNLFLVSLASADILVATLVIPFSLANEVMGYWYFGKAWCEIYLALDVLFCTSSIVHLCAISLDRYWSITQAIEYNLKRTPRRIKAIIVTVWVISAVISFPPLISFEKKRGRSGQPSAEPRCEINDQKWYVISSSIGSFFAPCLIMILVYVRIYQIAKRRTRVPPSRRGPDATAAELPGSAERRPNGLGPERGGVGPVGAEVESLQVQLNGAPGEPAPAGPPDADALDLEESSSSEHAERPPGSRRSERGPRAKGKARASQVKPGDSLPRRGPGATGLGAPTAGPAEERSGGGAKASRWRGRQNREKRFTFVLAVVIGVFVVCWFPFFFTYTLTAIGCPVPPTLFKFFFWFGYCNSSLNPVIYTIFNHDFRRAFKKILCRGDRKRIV
In words: Compound was evaluated for inhibition of binding of [3H]MK-91 to Alpha-2 adrenergic receptor in bovine pineal.

Test [4] has as its target T1, Alpha-2 adrenergic receptor. As to the kind of experiment: Compound was evaluated for inhibition of binding of [3H]MK-91 to Alpha-2 adrenergic receptor in mouse Malpha2-10H clone. The test is classed as protein assay.
Test [5] addresses T3, Alpha-2A adrenergic receptor (Sus scrofa, UniProt P18871).
T3 sequence (P18871 whole entry): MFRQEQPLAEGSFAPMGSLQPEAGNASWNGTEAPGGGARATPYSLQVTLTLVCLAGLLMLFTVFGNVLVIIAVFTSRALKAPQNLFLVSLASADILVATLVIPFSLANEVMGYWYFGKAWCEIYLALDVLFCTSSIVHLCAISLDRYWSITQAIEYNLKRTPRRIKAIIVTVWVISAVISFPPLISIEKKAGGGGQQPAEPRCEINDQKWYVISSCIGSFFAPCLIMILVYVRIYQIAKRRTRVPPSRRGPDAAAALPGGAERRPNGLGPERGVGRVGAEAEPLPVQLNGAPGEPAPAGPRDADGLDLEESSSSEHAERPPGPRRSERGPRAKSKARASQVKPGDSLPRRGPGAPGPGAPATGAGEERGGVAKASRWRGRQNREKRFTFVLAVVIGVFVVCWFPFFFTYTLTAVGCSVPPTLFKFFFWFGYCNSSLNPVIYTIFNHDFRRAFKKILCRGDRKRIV
In words: Compound was evaluated for inhibition of binding of [3H]MK-91 to Alpha-2 adrenergic receptor in porcine alpha2-clone.

pKi: −log10 of the molar value.

What is called Ki is the equilibrium dissociation constant of an inhibitor or competing ligand from its target. A lower Ki goes with a stronger hold on the target. By pKi is commonly meant −log10 of the Ki, conventionally taken in molar units. A low value points to a high Ki. For the compound `Cc1cc(C(C)(C)C)c(O)c(C)c1CC1=NCCN1` [OXYMETAZOLINE], the Ki is recorded as 132 nM in test [1], 109 nM in test [2] and 33 nM in test [4]. Also, the values for the pKi in test [3] and in test [5] were 8.82 and 7.68, respectively.
